Reference: patent US20040048837A1, “Method for treatment of renal disease” (priority 2002, published 2004)

How the values were obtained:
[1] = test system: patients undergoing chronic renal dialysis; conditions: use of paricalcitol; cited from earlier work
[2] = test system: patients undergoing chronic hemodialysis; assay: Historical cohort study of mortality and survival in chronic hemodialysis patients on intravenous paricalcitol or calcitriol; format: in vivo, human; conditions: for Mortality rate (deaths/person-years): 36-month follow-up after initiation of injectable vitamin D; for Number of deaths: 36-month follow-up, paricalcitol 18,430 person-years, calcitriol 22,057 person-years; for HR (mortality): reference calcitriol; for Crude survival at one year / Crude survival at three years / Crude survival at two years: Kaplan-Meier; for Mortality risk according to quintiles of base line PTH / Mortality risk according to quintiles of base line serum calcium: model adjusted for all covariates
Description: An historical cohort study was conducted of patients undergoing chronic hemodialysis in Fresenius Medical Care (FMC) dialysis facilities in the United States. Patients who initiated treatment with either paricalcitol or calcitriol beginning Jan. 1, 1999 or after, and who remained exclusively on that intravenous vitamin D formulation until the conclusion of the follow-up period on Dec. 31, 2001, were included in this study. Patients were excluded if they received any form of intravenous vitamin D prior to Jan. 1, 1999 or if they switched from one injectable vitamin D formulation to another during the study period. Patients treated exclusively with other intravenous vitamin D formulations were not studied because of small sample sizes in those groups.
The FMC data system is an Oracle database populated by the individual clinical data systems employed in each individual FMC dialysis facility. The database contains demographic, laboratory, hospitalization, and mortality information as well as detailed records of the treatments administered during each hemodialysis run since January 1995. All data were collected prospectively as part of routine patient care in over 1000 dialysis facilities throughout the United States. For this study, no additional data were retrospectively abstracted from medical records.
Upon a patient's admission to an FMC facility, demographic information including age, gender, race, date of first dialysis, cause of end stage renal disease, and diabetes status were entered into the system. Subsequently, hemodialysis prescription, laboratory tests, and injectable medications were recorded daily. Centralized labs utilized by all FMC facilities performed laboratory tests using standardized assays. Laboratory test results were automatically downloaded from the centralized laboratory to the FMC data system, minimizing the possibility of data entry errors.
Records of all medicines administered during hemodialysis included date of administration, medication name, dose, and route of administration. This information was collected and uploaded into a central database on a daily basis, and underwent routine quality assessment and control measures because of their link with billing systems. This permitted restriction of the analysis to those who initiated and remained on a single vitamin D formulation during the study period. Whenever a patient missed a hemodialysis treatment, a temporary absence or permanent discharge must be recorded in the system by the facility staff in order to complete the daily reconciliation of prescribed verses administered treatments. Therefore, all patient deaths, including date and cause of death (ICD-9 coded), were recorded in the database by the individual facilities as one type of permanent discharge. In addition, all hospitalizations are recorded as temporary absences, even if no dialysis treatment was missed. Data entered by the individual facilities underwent continuous quality improvement assessment to ensure their accuracy and completeness.
The base line for each individual patient was defined as within a three-month period before starting on paricalcitol or calcitriol. Base line laboratory values were obtained by averaging all values in the three months prior to initiating vitamin D therapy. Quintiles of base line serum calcium and phosphate levels were determined by aggregating values of all patients in the three year time period. Because of known lot-to-lot drifts in parathyroid hormone (PTH) assays, serum levels of PTH were categorized by yearly quintiles, and comparative quintiles across years were combined for the analysis.
Patient “vintage” was determined as the number of days from the initiation of chronic hemodialysis to the first day paricalcitol or calcitriol was administered. This covariate was examined both as a continuous and a categorical variable. […]

[3] = test system: patients; conditions: compared with injectable calcitriol (Calcijex); cited from earlier work
[4] = test system: uremic rats; conditions: cited from earlier work
[5] = test system: cells; conditions: in vitro; compared with paricalcitol; independent of serum calcium, phosphate, PTH; cited from earlier work

Question: What does the source list for C[C@H](/C=C/[C@H](C)C(C)(C)O)[C@H]1CC[C@H]2/C(=C/C=C3C[C@@H](O)C[C@H](O)C3)CCC[C@]12C [paricalcitol, 19-Nor=−1, 25-(OH)2D2]?
Answer: Adverse effects reported [1]: nausea, vomiting, metallic tastes, chills, fever, sepsis, palpitations, dry mouth, gastrointestinal bleeding, edema, light-headedness and pneumonia; Mortality rate (deaths/person-years) [2]: 18.54%; Number of deaths [2]: 3417 deaths; HR (mortality), restricted population, adjusted ([2]; Caucasian diabetic patients, ages 60-70 years, vintage <100 days, arteriovenous prosthetic graft, 95% CI 0.21-0.82): 0.42; HR (mortality), restricted population, unadjusted ([2]; Caucasian diabetic patients, ages 60-70 years, vintage <100 days, arteriovenous prosthetic graft, 95% CI 0.33-0.85): 0.53; HR (mortality) ([2]; Cox model Case Mix, Study Entry Period, SMR, Dialysis Access, Base-Line Laboratory Values, N 25,471): 0.73; HR (mortality) ([2]; Cox model Case Mix, Study Entry Period, SMR, Dialysis Access, N 50,572): 0.70; HR (mortality) ([2]; Cox model Case Mix, Study Entry Period, SMR, N 50,572): 0.69; HR (mortality) ([2]; Cox model Case-Mix and Study Entry Period, N 50,572): 0.70; HR (mortality) ([2]; Cox model Case-Mix, N 50,572): 0.61; HR (mortality) ([2]; Cox model Unadjusted, N 50,916): 0.58; Crude survival at one year [2]: 82.6%; Crude survival at three years [2]: 59.3%; Crude survival at two years [2]: 68.6%; Apparent risk (survival) benefit associated with paricalcitol treatment ([2]; after progressive adjustments, vs calcitriol): ~27%; Mortality risk within each quintile of serum phosphorus ([2]; compared with the calcitriol group, adjusted model): comparatively lower; Hazard ratio in the final model (Table 3) ([2]; final model n=25,471, Ref = calcitriol): 0.733; Risk reduction for each cause of mortality by ICD-9 codes ([2]; infection, neoplasm, cardiovascular, cerebrovascular, other, vs calcitriol, p<0.01): greater than 50%; Mortality risk according to quintiles of base line PTH [2]: significantly lower risk of mortality at all levels of PTH; Mortality risk according to quintiles of base line serum calcium [2]: did not appear to have an increased risk of mortality; Mortality Rate Ratio ([2]; paricalcitol vs calcitriol, 95% CI 0.58-0.63, p<0.01): 0.60; Survival advantage over calcitriol in stratum ([2]; patients less than 40 years of age at start, event rate 9%): did not demonstrate a significant survival advantage; Incidence of elevated Ca and/or Ca X P levels [3]: statistically significantly greater; Hypercalcemia or hyperphosphatemia [4]: without producing significant hypercalcemia or hyperphosphatemia; PTH secretion [4]: suppressed PTH secretion

Question: What does the source list for C=C1/C(=C\C=C2/CCC[C@]3(C)[C@@H]([C@H](C)CCCC(C)(C)O)CC[C@@H]23)C[C@@H](O)C[C@@H]1O [calcitriol, 1,25 dihydroxycholecalciferol]?
Answer: Mortality rate (deaths/person-years) [2]: 30.85%; Number of deaths [2]: 6805 deaths; Crude survival at one year [2]: 73.7%; Crude survival at three years [2]: 44.1%; Crude survival at two years [2]: 56.0%; Mortality risk according to quintiles of base line PTH [2]: increased with each successive quintile; Mortality risk according to quintiles of base line serum calcium [2]: increased with each successive quintile; Cell sensitization to injury [5]: sensitizes cells to ATP-depletion and iron-mediated injury
